Entries after “also recorded” stand apart in the source; their conditions may differ. Structures can show the parent of a compound that is named as a salt.
Tests used:
Format in all cases: physicochemical
[1] = Thermogravimetric analysis (TGA) weight loss / water content; settings: potassium salt; for hydration state: TGA
Experimental: (§1) The crystal forms were characterized and evaluated by measuring the heats of solution or solution calorimetry, solubility data, x-ray powder diffraction patterns (XRPD), differential scanning calorimetry (DSC) and thermogravimetric analysis (TGA). Heats of solution at 30° C. were obtained in the Setaram C-80 calvet calorimeter with sample size of 7-13 mg dissolved into 5 ml of 88% DMSO 12% water for a final concentration of 1.4-2.6 mg/ml. XRPD patterns were recorded using an automated Siemens X-ray diffractometer with copper tube K alpha radiation. DSC and TGA were conducted using a Perkin Elmer series 7 instrument with a scan rate of 10° C./min over the temperature range of 30°-300° C. Utilizing these techniques the thermodynamic stability of the polymorphs of 3-[2'-(N-benzoyl)sulfonamidobiphenyl-4-yl]methyl-5,7-dimethyl-2-ethyl-3H-imidazo[4,5-b]pyridine potassium salt was determined.
Step K: Preparation of 3-[2'-(N-Benzyl)sulfonamidobiphenyl-4-yl]methyl-5,7-dimethyl-2-ethyl-3H-imidazo[4,5-b]pyridine potassium salt--(Forms I, Id and W) [drawing 13] In a 72-L four-necked flask fitted with an overhead stirrer and a reflux condenser, 3-[2'-(N-benzyl)sulfonamidobiphenyl-4-yl]methyl-5,7-dimethyl-2-ethyl-3H-imidazo[4,5-b]pyridine 1 (5.04 kg, 9.6 mol), methanol (14.5 L) and water (2.5 L) are mixed. The slurry is warmed to 62° C. under a nitrogen atmosphere and 1.94M potassium hydroxide (4.96 L, 9.61 mol) is added to the slurry at 62° C. over 1.5 hours to provide a homogeneous solution. Isopropyl acetate (13.83 L) is then added at 65° C. and the mixture is warmed to 70° C. The homogeneous solution is filtered at 70° C. to remove any particulates that are present. The filtrate is diluted with isopropyl acetate (1.3 L), methanol (0.6 L) and water (0.1 L). […] The homogeneous mixture is cooled to 52° C. over 2 hours, whereupon potassium salt seed of form "I" (140 g) is added. This mixture becomes cloudy after 30 min. The mixture is aged for 10 hours at 52° C. The white slurry is cooled to 48° C. over 1 hour and stirred for 3 hours. Finally, the crystallization mixture is cooled to 0° C. at a rate of 1° C./12.5 min. and aged for 2 hours at 0° C. […] The solid is centrifuged at 0° C. and displacement-washed with a mixture of 2:2:1 cold (0° C.) isopropyl acetate/methanol/water (5.65 L) followed by isopropyl acetate (2.3 L). The solid is semi-dried to a TG of 10-15% by spin drying. The mother liquors contain 21 wt % of 3-[2'-(N-benzyl)sulfonamidobiphenyl-4-yl]methyl-5,7-dimethyl-2-ethyl-3H-imidazo[4,5-b]pyridine potassium salt. At this stage, the crystal form of the product is form "W". The product is powdered by passing through a screen (size=12). The solid is dried by passing dry nitrogen over the solid under vacuum at 22° C. for 5 hours to yield 4.55 kg of 3-[2'-(N-benzyl)sulfonamidobiphenyl-4-yl]methyl-5,7-dimethyl-2-ethyl-3H-imidazo[4,5-b]pyridine potassium salt as the form "I" with a purity of 99.7% (assay-HClO4 titration) and TG of 7-10%. Generally, the wet cake consists of residual water, methanol and isopropyl acetate. The K-salt is considered dry when <0.05% methanol and isopropyl acetate are detected by ^1 H NMR. The product is further powdered by passing the solid through a Quadro Comil (model 197s, screen size=1143 mm round impeller) to yield 4.5 kg. The product is dried to a TG of 4.6-5.5% by the passage of dry nitrogen over the solid under vacuum at 22° C. After 10 hours, 4.24 kg (78%) of the potassium salt as the form "I" is obtained with a TG of […] (99.7 wt % by titration). The water content can be monitored by TG analysis. The TG of the potassium salt of form "I" is 4.6-5.5%. The crystal form is monitored by X-ray analysis. When the potassium salt is over dried, the crystal form converts to form "Id" (TG<4.6%). […]

[2] = Crystal form conversion in acetonitrile, with or without water (XRPD); settings: overnight, room temperature, potassium salt; for crystal form after stirring/shaking in acetonitrile: no added water; for crystal form after shaking in acetonitrile-water: acetonitrile with added water
Excerpt: Since all of the crystal forms of 3-[2'-(N-benzoyl)sulfonamidobiphenyl-4-yl]methyl-5,7-dimethyl-2-ethyl-3H-imidazo[4,5-b]pyridine potassium salt were changed to a single crystal form "D", in water, the effect of a non-aqueous solvent was studied. 3-[2'-(N-benzoyl)sulfonamidobiphenyl-4-yl]methyl-5,7-dimethyl-2-ethyl-3H-imidazo[4,5-b]pyridine potassium salt, Forms "A", "B", "C", and "D" were stirred overnight at room temperature in acetonitrile. The remaining solids were filtered and then vacuum dried overnight at room temperature. The crystallinity of the solids was examined by XRPD spectroscopy.
All of the crystal forms were converted to a single crystal form ("D") in water, but in acetonitrile to two different crystal forms. […] To explore the role of water in the above experiments, 3-[2'-(N-benzoyl)sulfonamidobiphenyl-4-yl]methyl-5,7-dimethyl-2-ethyl-3H-imidazo[4,5-b]pyridine potassium salt, form "C" (an anhydrous crystal form) was this time suspended in acetonitrile with added water (water was 10% of the solid weight). As a control experiment Form "C" was also suspended in acetonitrile with no added water. The samples were shaken overnight at room temperature. The remaining solids were filtered and vacuum dried overnight at room temperature.

[3] = Heat of solution by solution calorimetry (Setaram C-80); settings: potassium salt
Experimental: The heat of solution of different crystal forms of 3-[2'-(N-benzoyl)sulfonamidobiphenyl-4-yl]methyl-5,7-dimethyl-2-ethyl-3H-imidazo[4,5-b]pyridine potassium salt were studied at 30° C. The heat of solution is a measure of the crystal lattice energy. […] Heats of solution had to be conducted in a solvent which dissolved the samples quickly without conversion to another polymorph. This really limited solvents which could be used. Dimethylsulfoxide was chosen for this reason. The heats of solution therefore have contributions from the lattice energy of the solid as well as heat of dilution of lattice water in dimethylsulfoxide. The calorimeter therefore produces a complex signal that has an exothermic contribution from the water and an additional contribution from the energy required to dissolve the crystal. […] Additional heats of solution were determined in a mixed solvent system of 88% dimethylsulfoxide and 12% water. This system was used to minimize the contribution of moisture to the heat of solution.
as §1, with “C.” for “C. Utilizing these techniques the thermodynamic stability of the polymorphs of 3-[2'-(N-benzoyl)sulfonamidobiphenyl-4-yl]methyl-5,7-dimethyl-2-ethyl-3H-imidazo[4,5-b]pyridine potassium salt was determined.”

[4] = Crystal form stability in water (XRPD of remaining solid); settings: room temperature, potassium salt
Excerpt: [13) S. R. Byre. "Solid State Chemistry of Drugs." Academic Press, New York, 1982.] […] Recrystallization of any of these lots from solvents like ethanol, methanol, isopropanol, acetone, etc. gave new crystal forms different from the original forms. […] Solubility in water at room temperature was one of these techniques. The equilibrium solubility in water, at room temperature for five polymorphs (Forms "B", "C", "D", "F", and "G") were the same (Table 1). When the remaining solids were filtered, air dried or vacuum dried overnight at room temperature the XRPD patterns had changed from the initial patterns and all were exactly the same. These experiments indicate that all of the crystal forms converted in water at room temperature to a new crystalline form designated […].
The remaining form "I" solid after equilibrium solubility studies in water was removed by filtration and vacuum dried overnight at room temperature.
After the discovery of form "I", form "D" could no longer be isolated in our laboratory. TGA studies indicate that form "I" of 3-[2'-(N-benzoyl)sulfonamidobiphenyl-4-yl]methyl-5,7-dimethyl-2-ethyl-3H-imidazo[4,5-b]pyridine potassium salt is a dihydrate (FIG. 4).

[5] = Crystal form stability on heating
[6] = Equilibrium solubility in water at room temperature; settings: room temperature

CCc1nc2c(C)cc(C)nc2n1Cc1ccc(-c2ccccc2S(=O)(=O)NC(=O)c2ccccc2)cc1 [Form J, 3-[2'-(N-benzoyl)sulfonamidobiphenyl-4-yl]methyl-5,7-dimethyl-2-ethyl-3H-imidazo[4,5-b]pyridine potassium salt]
% Weight Loss (Δ 30-150° C. by TGA) ([1]; listed as J): 0.7%

CCc1nc2c(C)cc(C)nc2n1Cc1ccc(-c2ccccc2S(=O)(=O)NC(=O)c2ccccc2)cc1 [Form A, 3-[2'-(N-benzoyl)sulfonamidobiphenyl-4-yl]methyl-5,7-dimethyl-2-ethyl-3H-imidazo[4,5-b]pyridine potassium salt]
% Weight Loss (Δ 30-150° C. by TGA) ([1]; listed as A): 3.4% | hydration state ([1]; listed as A): hydrated | crystal form after stirring/shaking in acetonitrile ([2]; listed as A): converted to a new crystal form ("I"); also recorded: changed to form "I" | ΔH solution DMSO at 30° C. ([3]; 30° C., listed as A): 4.92 ± 0.47 J/g

CCc1nc2c(C)cc(C)nc2n1Cc1ccc(-c2ccccc2S(=O)(=O)NC(=O)c2ccccc2)cc1 [Form F, 3-[2'-(N-benzoyl)sulfonamidobiphenyl-4-yl]methyl-5,7-dimethyl-2-ethyl-3H-imidazo[4,5-b]pyridine potassium salt]
crystal form after suspension in water ([4]; listed as F): converted to form "D"

CCc1nc2c(C)cc(C)nc2n1Cc1ccc(-c2ccccc2S(=O)(=O)NC(=O)c2ccccc2)cc1 [Form G, 3-[2'-(N-benzoyl)sulfonamidobiphenyl-4-yl]methyl-5,7-dimethyl-2-ethyl-3H-imidazo[4,5-b]pyridine potassium salt]
% Weight Loss (Δ 30-150° C. by TGA) ([1]; listed as G): 0% | hydration state ([1]; listed as G): anhydrous | crystal form after suspension in water ([4]; listed as G): converted to form "D" | ΔH solution DMSO at 30° C. ([3]; 30° C., listed as G): 8.51 ± 0.66 J/g

CCc1nc2c(C)cc(C)nc2n1Cc1ccc(-c2ccccc2S(=O)(=O)NC(=O)c2ccccc2)cc1 [Form D, 3-[2'-(N-benzoyl)sulfonamidobiphenyl-4-yl]methyl-5,7-dimethyl-2-ethyl-3H-imidazo[4,5-b]pyridine potassium salt]
crystal form after heating at 40° C. for 30 minutes ([5]; 40° C., 30 minutes): did not change | crystal form after heating at 40° C. for 24 hours ([5]; 40° C., 24 hours): crystallinity was reduced and XRPD pattern changed to a new form called "F" | crystal form after heating up to 190° C. ([5]; up to 190° C., a few minutes): produced a new crystalline anhydrous form designated "G" | % Weight Loss (Δ 30-150° C. by TGA) ([1]; listed as D): 12-14% | hydration state ([1]; listed as D): hydrated | crystal form after shaking in acetonitrile-water ([2]; listed as D): the final crystal form was also "I" | crystal form after stirring/shaking in acetonitrile ([2]; listed as D): converted to a new crystal form ("I"); also recorded: changed to form "I" | crystal form after suspension in water ([4]; listed as D): converted to form "I" | solubility ([6]; water, Table I): 10.4 ± 0.7 mg/mL | ΔH solution 88% DMSO/12% H2O ([3]; 88% DMSO/12% H2O, 30° C., listed as D): -16.33 ± 1.61 J/g | ΔH solution DMSO at 30° C. ([3]; 30° C., listed as D): -1.36 ± 0.42 J/g | thermodynamic stability ([3]; from heats of solution and equilibrium solubility, listed as D): metastable with respect to "I"

CCc1nc2c(C)cc(C)nc2n1Cc1ccc(-c2ccccc2S(=O)(=O)NC(=O)c2ccccc2)cc1 [Form B, 3-[2'-(N-benzoyl)sulfonamidobiphenyl-4-yl]methyl-5,7-dimethyl-2-ethyl-3H-imidazo[4,5-b]pyridine potassium salt]
% Weight Loss (Δ 30-150° C. by TGA) ([1]; listed as B): 0.5% | hydration state ([1]; listed as B): anhydrous | crystal form after stirring/shaking in acetonitrile ([2]; listed as B): changed to another new form ("J") | equilibrium solubility in water, comparison of five polymorphs [6]: the same | ΔH solution DMSO at 30° C. ([3]; 30° C., listed as B): 17.78 ± 0.52 J/g

CCc1nc2c(C)cc(C)nc2n1Cc1ccc(-c2ccccc2S(=O)(=O)NC(=O)c2ccccc2)cc1 [Form C, 3-[2'-(N-benzoyl)sulfonamidobiphenyl-4-yl]methyl-5,7-dimethyl-2-ethyl-3H-imidazo[4,5-b]pyridine potassium salt]
% Weight Loss (Δ 30-150° C. by TGA) ([1]; listed as C): 0.6% | hydration state ([1]; listed as C): anhydrous | crystal form after shaking in acetonitrile-water ([2]; listed as C): converted to form "I" | crystal form after stirring/shaking in acetonitrile ([2]; listed as C): changed to another new form ("J") | ΔH solution DMSO at 30° C. ([3]; 30° C., listed as C): 29.75 ± 0.46 J/g
